Measurements published in patent US11584765B2 (priority 2017, dated 2023).

Test system: C57BL/6 mice
Test: animal or person
Type: in vivo
Conditions: Mus musculus, sc, 0.5 h, s.c. administration, 30 min, 55° C. water, read-out: ED50 (mg/kg) at 30 min on C57BL/6 mice in Warm-water Tail-flick Test

**Q.** For CC(=O)Nc1ccc(CN2CCC(CCc3ccccc3)(C(N)=O)CC2)cc1 [Compound 60, 1-(4-acetamidobenzyl)-4-phenethylpiperidine-4-carboxamide], which ED50 is on record?
**A.** > 10 mg/kg

**Q.** Cc1ccc(CN2CCC(CCc3ccccc3)(c3ccccn3)CC2)cn1 [Compound 432, 2-methyl-5-((4-phenethyl-4-(pyridin-2-yl)piperidin-1-yl)methyl)pyridine] was tested. Which ED50 did it give?
**A.** < 10 mg/kg
